Results on three compounds are retold here after patent publication US9066517B2, “Pest control agents for honeybee parasitic pests, and pest control method for honeybee parasitic pests using the pest control agents” (MEIJI SEIKA PHARMA CO., LTD., priority 2013, dated 2015).

Common to all, as to type: in vivo
Series [1] concerns Varroa destructor. Nature of the series: Test Example 2: pest control test of Varroa destructor, parasitism rate. The conditions noted are these: for Parasitism rate before treatment (%): rate 10 ppm group, before chemical treatment (baseline); for Parasitism rate at 72 hours after treatment (%) / Change in parasitism rate (%)*: rate 10 ppm; for Parasitism rate at 72 hours after treatment (%): abdomens dipped; for Change in parasitism rate (%)*: {100 − (parasitism rate at 72 hours after treatment/parasitism rate before treatment) × 100}. The source says: (§1) After anesthesized with carbonic acid gas, adults of Apis mellifera collected from a hive were grouped in test cages such that there were 10 to 20 heads per cage. Thereafter, the Apis mellifera were subjected to a chemical treatment by dipping the abdomens into an acetone solution of the compound according to the present invention at predetermined concentrations. After the Apis mellifera air-dried, the recovery of the Apis mellifera from the anesthesia was confirmed. Then, the cages were lidded to leave the Apis mellifera to stand in a thermostatic chamber under dark at 25° C. Note that 50% sucrose water absorbed to absorbent cotton was provided as a bait during the test period.
(§2) The number of Apis mellifera survived at 72 hours after the chemical treatment as well as the numbers of Varroa destructor parasitizing the Apis mellifera before the chemical treatment and at 72 hours after the chemical treatment were examined. The mortality and the parasitism rate were calculated by the following equations. The test was conducted in duplicate. Mortality(%)={((100−survival rate in chemical treated plot)−(100−survival rate in acetone treated plot))/(100−mortalityin acetone treated plot)}×100 Parasitism rate(%)=(number of heads of honeybees parasitized by Varroa destructor/number of honeybees survived)×100

The test system of series [2] is Apis mellifera. Nature of the series: Test Example 1: mortality of honeybees after topical application (micro applicator). The conditions noted are these: acetone solution applied to abdomens of adult Apis mellifera infected with Varroa destructor, 48 hours after treatment. The method, then: (§3) After anesthesized with carbonic acid gas, adults of Apis mellifera infected with Varroa destructor were subjected to a chemical treatment by applying the abdomens with an acetone solution of the compound according to the present invention at predetermined concentrations using a micro applicator. After the treatment, Apis mellifera were transferred into a plastic case and left to stand in a thermostatic chamber under dark at 25° C. During the test period, 50% sucrose water absorbed to absorbent cotton was provided as a bait.
(§4) Forty eight hours after the chemical treatment, the number of Apis mellifera survived and the number of parasitic Varroa destructor were examined. The mortality of the honeybees and the preventive value against Varroa destructor were calculated by the following equations. Mortality(%)={((100−survival rate in chemical treated plot)−(100−survival rate in acetone treated plot))/(100−mortality in acetone treated plot)}×100 Preventive value={(parasitism rate in untreated plot−parasitism rate in chemical treated plot)/(parasitism rate in untreated plot)}×100

The test system of series [3] is Varroa destructor. Put plainly: Test Example 1: pest control test of Varroa destructor, preventive value. The conditions noted are these: application dose 10 μg, Varroa destructor on adult Apis mellifera, 48 hours after treatment. As for the experimental part: as §3, §4
Series [4] has as its system Apis mellifera. Nature of the series: Test Example 2: mortality of honeybees after dipping the abdomens. The following applies: rate 10 ppm, abdomens dipped into acetone solution, adult Apis mellifera.
Source text: as §1, §2

Take `O=C(N=c1ccccn1Cc1ccc(Cl)nc1)C(F)(F)F` [Compound P212, N-[1-((6-chloropyridin-3-yl)methyl)pyridin-2(1H)-ylidene]-2,2,2-trifluoroacetamide]: in the series on Varroa destructor [1], the “Parasitism rate before treatment (%)” value turned out to be 17%, the “Parasitism rate at 72 hours after treatment (%)” value is recorded as 10% and the “Change in parasitism rate (%)*” value is given as −41%. Further, the “Mortality (%)” value with Apis mellifera [2] (application dose 10 μg) turned out to be 0%. In addition, in the series with Varroa destructor [3], the Preventive value was 100. The “Mortality at 72 hours after treatment (%)” value in the series on Apis mellifera [4] is 0%.

`FC(F)(F)C(=S)N=c1ccccn1Cc1ccc(Cl)nc1` [Compound 1-20, N-[1-((6-chloropyridin-3-yl)methyl)pyridin-2(1H)-ylidene]-2,2,2-trifluoroethanethioamide]: in the series on Varroa destructor [1], the “Parasitism rate before treatment (%)” value was 51%, the “Parasitism rate at 72 hours after treatment (%)” value came to 23% and the “Change in parasitism rate (%)*” value is listed as −55%. In addition, in the series on Apis mellifera [4], the “Mortality at 72 hours after treatment (%)” value stood at 0%.

As for `CC(C)[C@H](Nc1ccc(C(F)(F)F)cc1Cl)C(=O)OC(C#N)c1cccc(Oc2ccccc2)c1` (some centres unmarked) [Fluvalinate, reference compound], the “Mortality (%)” value in the series on Apis mellifera [2] (application dose 5 μg) is 64%.
